{"source": "patent US20260022142A1", "about": "“MACROCYCLIC IMMUNOMODULATORS” (Bristol-Myers Squibb Company, priority 2022, published 2026)", "molecular_target": "T1, PD-1/PD-L1 interaction (PE-labeled human PD-L1-Ig binding to Jurkat cell line over-expressing human PD-1) (Homo sapiens, UniProt Q15116)", "T1 construct": "expressed in transfected cells; host or cells: Jurkat", "T1 sequence (Q15116 25-288)": "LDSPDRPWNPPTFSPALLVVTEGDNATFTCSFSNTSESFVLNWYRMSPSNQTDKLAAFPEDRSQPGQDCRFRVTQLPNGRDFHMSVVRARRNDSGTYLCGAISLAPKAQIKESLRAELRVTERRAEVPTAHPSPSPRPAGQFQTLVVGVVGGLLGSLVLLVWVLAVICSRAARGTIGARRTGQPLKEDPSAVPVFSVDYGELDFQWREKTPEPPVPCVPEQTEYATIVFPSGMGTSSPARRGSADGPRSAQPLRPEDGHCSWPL", "test": "Jurkat-PD-1 Cell Binding High-Content Screening Assay (CBA)", "assay_type": "cell-based", "conditions": "Jurkat cell line over-expressing human PD-1; PE-labeled PD-L1-Ig 20 nM final; read-out: Jurkat hPD1-PDL1 IC50", "outline": "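Binding of fluorescent PD-L1-Ig (phycoerythrin on Ig tag, 20 nM final, 1 h) measured by high-content imaging of fixed, Hoechst-counterstained Jurkat-hPD-1 cells. Compound added 2 h at 37° C beforehand, in DMEM with 10% fetal calf serum.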", "note": "Bridge positions count the residues as written; N and C are the ends. Square brackets hold non-standard residues; d marks the D form. Peptide text beside a SMILES is read from it. * marks the point of attachment. Bip = N[C@@H](Cc1ccc(-c2ccccc2)cc1)C(=O)O; Phe(3-Me) = Cc1cccc(C[C@H](N)C(=O)O)c1; 4Pal = N[C@@H](Cc1ccncc1)C(=O)O; Cha = N[C@@H](CC1CCCCC1)C(=O)O; Carboxymethyl = O=C(O)C*; Nle = CCCC[C@H](N)C(=O)O; Orn = NCCC[C@H](N)C(=O)O; Aun = NCCCCCCCCCCC(=O)O; Dab = NCC[C@H](N)C(=O)O; Dap = NC[C@H](N)C(=O)O; AEEA = NCCOCCOCC(=O)O", "data": [{"smiles": "Cc1cccc(C[C@@H]2NC(=O)[C@H](CC(=O)O)NC(=O)[C@H](Cc3ccncc3)NC(=O)[C@H](Cc3ccc(OCC(=O)O)cc3)NC(=O)CSC[C@@H](C(=O)N[C@@H](CCN)C(=O)NCCOCCOCC(=O)NCCCCCCCCCCC(=O)O)NC(=O)[C@H](CCCN)NC(=O)[C@H](C(C)C)NC(=O)[C@H](CC3CCCCC3)NC(=O)[C@H](CCN)NC(=O)[C@@H](CC(C)C)NC(=O)[C@H](CCCN)NC(=O)[C@H](Cc3ccc(O)cc3)NC(=O)[C@H](Cc3ccc(-c4ccccc4)cc3)NC(=O)[C@H](C(C)C)NC2=O)c1", "note": "[Compound 2709] ({CH2CO}-Y(Carboxymethyl)[4Pal]D[Phe(3-Me)]V[Bip]Y[Orn][dL][Dab][Cha]V[Orn]C[Dab][AEEA][Aun]-OH; thioether N-14)", "values": [{"measurement": "IC50", "result": 8.4, "unit": "nM"}]}, {"smiles": "Cc1cccc(C[C@@H]2NC(=O)[C@H](CC(=O)O)NC(=O)[C@H](Cc3ccncc3)NC(=O)[C@H](Cc3ccc(OCC(=O)O)cc3)NC(=O)CSC[C@@H](C(=O)N[C@@H](CCN)C(=O)NCCCCCCCCCCC(=O)O)NC(=O)[C@H](CCCN)NC(=O)[C@H](C(C)C)NC(=O)[C@H](CC3CCCCC3)NC(=O)[C@H](CCN)NC(=O)[C@@H](CC(C)C)NC(=O)[C@H](CCCN)NC(=O)[C@H](Cc3ccc(O)cc3)NC(=O)[C@H](Cc3ccc(-c4ccccc4)cc3)NC(=O)[C@H](C(C)C)NC2=O)c1", "note": "[Compound 2710] ({CH2CO}-Y(Carboxymethyl)[4Pal]D[Phe(3-Me)]V[Bip]Y[Orn][dL][Dab][Cha]V[Orn]C[Dab][Aun]-OH; thioether N-14)", "values": [{"measurement": "IC50", "result": 18.6, "unit": "nM"}]}, {"smiles": "Cc1cccc(C[C@@H]2NC(=O)[C@H](CC(=O)O)NC(=O)[C@H](Cc3ccc(OCC(=O)O)cc3)NC(=O)[C@H](CN)NC(=O)CSC[C@@H](C(=O)N[C@@H](CCN)C(=O)NCCCCCCCCCCC(=O)O)NC(=O)[C@H]([C@@H](C)O)NC(=O)[C@H](C(C)C)NC(=O)[C@H](CC3CCCCC3)NC(=O)[C@H](CCN)NC(=O)[C@@H](CC(C)C)NC(=O)[C@H](CCCN)NC(=O)[C@H](Cc3ccc(O)cc3)NC(=O)[C@H](Cc3ccc(-c4ccccc4)cc3)NC(=O)[C@H](Cc3ccc(O)cc3)NC2=O)c1", "note": "[Compound 2711] ({CH2CO}-[Dap]Y(Carboxymethyl)D[Phe(3-Me)]Y[Bip]Y[Orn][dL][Dab][Cha]VTC[Dab][Aun]-OH; thioether N-14)", "values": [{"measurement": "IC50", "result": 10.4, "unit": "nM"}]}, {"smiles": "Cc1cccc(C[C@@H]2NC(=O)[C@H](CC(=O)O)NC(=O)[C@H](Cc3ccc(OCC(=O)O)cc3)NC(=O)[C@H](CN)NC(=O)CSC[C@@H](C(=O)N[C@@H](CCN)C(=O)NCCCCCCCCCCC(=O)O)NC(=O)[C@H](CO)NC(=O)[C@H](C(C)C)NC(=O)[C@H](CC3CCCCC3)NC(=O)[C@H](CCN)NC(=O)[C@@H](CC(C)C)NC(=O)[C@H](CCCN)NC(=O)[C@H](Cc3ccc(O)cc3)NC(=O)[C@H](Cc3ccc(-c4ccccc4)cc3)NC(=O)[C@H](Cc3ccc(O)cc3)NC2=O)c1", "note": "[Compound 2712] ({CH2CO}-[Dap]Y(Carboxymethyl)D[Phe(3-Me)]Y[Bip]Y[Orn][dL][Dab][Cha]VSC[Dab][Aun]-OH; thioether N-14)", "values": [{"measurement": "IC50", "result": 20.6, "unit": "nM"}]}, {"smiles": "Cc1cccc(C[C@@H]2NC(=O)[C@H](CC(=O)O)NC(=O)[C@H](Cc3ccc(OCC(=O)O)cc3)NC(=O)[C@H](CN)NC(=O)CSC[C@@H](C(=O)N[C@@H](CCN)C(=O)NCCCCCCCCCCC(=O)O)NC(=O)[C@H](CCC(N)=O)NC(=O)[C@H](C(C)C)NC(=O)[C@H](CC3CCCCC3)NC(=O)[C@H](CCN)NC(=O)[C@@H](CC(C)C)NC(=O)[C@H](CCCN)NC(=O)[C@H](Cc3ccc(O)cc3)NC(=O)[C@H](Cc3ccc(-c4ccccc4)cc3)NC(=O)[C@H](Cc3ccc(O)cc3)NC2=O)c1", "note": "[Compound 2713] ({CH2CO}-[Dap]Y(Carboxymethyl)D[Phe(3-Me)]Y[Bip]Y[Orn][dL][Dab][Cha]VQC[Dab][Aun]-OH; thioether N-14)", "values": [{"measurement": "IC50", "result": 7.7, "unit": "nM"}]}, {"smiles": "CCCC[C@@H]1NC(=O)[C@H](C(C)C)NC(=O)[C@H](CC2CCCCC2)NC(=O)[C@H](CCN)NC(=O)[C@@H](CC(C)C)NC(=O)[C@H](CCCN)NC(=O)[C@H](Cc2ccc(O)cc2)NC(=O)[C@H](Cc2ccc(-c3ccccc3)cc2)NC(=O)[C@H](Cc2ccc(O)cc2)NC(=O)[C@H](Cc2cccc(C)c2)NC(=O)[C@H](CC(=O)O)NC(=O)[C@H](Cc2ccc(OCC(=O)O)cc2)NC(=O)[C@H](CN)NC(=O)CSC[C@@H](C(=O)N[C@@H](CCN)C(=O)NCCCCCCCCCCC(=O)O)NC1=O", "note": "[Compound 2714] ({CH2CO}-[Dap]Y(Carboxymethyl)D[Phe(3-Me)]Y[Bip]Y[Orn][dL][Dab][Cha]V[Nle]C[Dab][Aun]-OH; thioether N-14)", "values": [{"measurement": "IC50", "result": 406, "unit": "nM"}]}, {"smiles": "Cc1cccc(C[C@@H]2NC(=O)[C@H](CC(=O)O)NC(=O)[C@H](Cc3ccc(OCC(=O)O)cc3)NC(=O)[C@H](CN)NC(=O)CSC[C@@H](C(=O)N[C@@H](CCN)C(=O)NCCCCCCCCCCC(=O)O)NC(=O)[C@@H](CCC(N)=O)NC(=O)[C@H](C(C)C)NC(=O)[C@H](CC3CCCCC3)NC(=O)[C@H](CCN)NC(=O)[C@@H](CC(C)C)NC(=O)[C@H](CCCN)NC(=O)[C@H](Cc3ccc(O)cc3)NC(=O)[C@H](Cc3ccc(-c4ccccc4)cc3)NC(=O)[C@H](Cc3ccc(O)cc3)NC2=O)c1", "note": "[Compound 2715] ({CH2CO}-[Dap]Y(Carboxymethyl)D[Phe(3-Me)]Y[Bip]Y[Orn][dL][Dab][Cha]V[dQ]C[Dab][Aun]-OH; thioether N-14)", "values": [{"measurement": "IC50", "result": 8.9, "unit": "nM"}]}, {"smiles": "Cc1cccc(C[C@@H]2NC(=O)[C@H](CC(=O)O)NC(=O)[C@H](Cc3ccc(OCC(=O)O)cc3)NC(=O)[C@H](CN)NC(=O)CSC[C@@H](C(=O)N[C@@H](CCN)C(=O)NCCCCCCCCCCC(=O)O)NC(=O)[C@@H]([C@H](C)O)NC(=O)[C@H](C(C)C)NC(=O)[C@H](CC3CCCCC3)NC(=O)[C@H](CCN)NC(=O)[C@@H](CC(C)C)NC(=O)[C@H](CCCN)NC(=O)[C@H](Cc3ccc(O)cc3)NC(=O)[C@H](Cc3ccc(-c4ccccc4)cc3)NC(=O)[C@H](Cc3ccc(O)cc3)NC2=O)c1", "note": "[Compound 2716] ({CH2CO}-[Dap]Y(Carboxymethyl)D[Phe(3-Me)]Y[Bip]Y[Orn][dL][Dab][Cha]V[dT]C[Dab][Aun]-OH; thioether N-14)", "values": [{"measurement": "IC50", "result": 24.3, "unit": "nM"}]}, {"smiles": "Cc1cccc(C[C@@H]2NC(=O)[C@H](CC(=O)O)NC(=O)[C@H](Cc3ccc(OCC(=O)O)cc3)NC(=O)[C@H](CN)NC(=O)CSC[C@@H](C(=O)N[C@@H](CCN)C(=O)NCCCCCCCCCCC(=O)O)NC(=O)[C@H]([C@@H](C)O)NC(=O)[C@H](C(C)C)NC(=O)[C@H](CC3CCCCC3)NC(=O)[C@H](CCN)NC(=O)[C@@H](CC(C)C)NC(=O)[C@H](CCCN)NC(=O)[C@H](Cc3ccc(O)cc3)NC(=O)[C@H](Cc3ccc(-c4ccccc4)cc3)NC(=O)[C@H](C(C)C)NC2=O)c1", "note": "[Compound 2717] ({CH2CO}-[Dap]Y(Carboxymethyl)D[Phe(3-Me)]V[Bip]Y[Orn][dL][Dab][Cha]VTC[Dab][Aun]-OH; thioether N-14)", "values": [{"measurement": "IC50", "result": 17.1, "unit": "nM"}]}, {"smiles": "Cc1cccc(C[C@@H]2NC(=O)[C@H](CC(=O)O)NC(=O)[C@H](Cc3ccc(OCC(=O)O)cc3)NC(=O)[C@H](CN)NC(=O)CSC[C@@H](C(=O)N[C@@H](CCN)C(=O)NCCCCCCCCCCC(=O)O)NC(=O)[C@H](CO)NC(=O)[C@H](C(C)C)NC(=O)[C@H](CC3CCCCC3)NC(=O)[C@H](CCN)NC(=O)[C@@H](CC(C)C)NC(=O)[C@H](CCCN)NC(=O)[C@H](Cc3ccc(O)cc3)NC(=O)[C@H](Cc3ccc(-c4ccccc4)cc3)NC(=O)[C@H](C(C)C)NC2=O)c1", "note": "[Compound 2718] ({CH2CO}-[Dap]Y(Carboxymethyl)D[Phe(3-Me)]V[Bip]Y[Orn][dL][Dab][Cha]VSC[Dab][Aun]-OH; thioether N-14)", "values": [{"measurement": "IC50", "result": 31.3, "unit": "nM"}]}, {"smiles": "Cc1cccc(C[C@@H]2NC(=O)[C@H](CC(=O)O)NC(=O)[C@H](Cc3ccc(OCC(=O)O)cc3)NC(=O)[C@H](CN)NC(=O)CSC[C@@H](C(=O)N[C@@H](CCN)C(=O)NCCCCCCCCCCC(=O)O)NC(=O)[C@H](CCC(N)=O)NC(=O)[C@H](C(C)C)NC(=O)[C@H](CC3CCCCC3)NC(=O)[C@H](CCN)NC(=O)[C@@H](CC(C)C)NC(=O)[C@H](CCCN)NC(=O)[C@H](Cc3ccc(O)cc3)NC(=O)[C@H](Cc3ccc(-c4ccccc4)cc3)NC(=O)[C@H](C(C)C)NC2=O)c1", "note": "[Compound 2719] ({CH2CO}-[Dap]Y(Carboxymethyl)D[Phe(3-Me)]V[Bip]Y[Orn][dL][Dab][Cha]VQC[Dab][Aun]-OH; thioether N-14)", "values": [{"measurement": "IC50", "result": 7.4, "unit": "nM"}]}, {"smiles": "CCCC[C@@H]1NC(=O)[C@H](C(C)C)NC(=O)[C@H](CC2CCCCC2)NC(=O)[C@H](CCN)NC(=O)[C@@H](CC(C)C)NC(=O)[C@H](CCCN)NC(=O)[C@H](Cc2ccc(O)cc2)NC(=O)[C@H](Cc2ccc(-c3ccccc3)cc2)NC(=O)[C@H](C(C)C)NC(=O)[C@H](Cc2cccc(C)c2)NC(=O)[C@H](CC(=O)O)NC(=O)[C@H](Cc2ccc(OCC(=O)O)cc2)NC(=O)[C@H](CN)NC(=O)CSC[C@@H](C(=O)N[C@@H](CCN)C(=O)NCCCCCCCCCCC(=O)O)NC1=O", "note": "[Compound 2720] ({CH2CO}-[Dap]Y(Carboxymethyl)D[Phe(3-Me)]V[Bip]Y[Orn][dL][Dab][Cha]V[Nle]C[Dab][Aun]-OH; thioether N-14)", "values": [{"measurement": "IC50", "result": 135, "unit": "nM"}]}, {"smiles": "Cc1cccc(C[C@@H]2NC(=O)[C@H](CC(=O)O)NC(=O)[C@H](Cc3ccc(OCC(=O)O)cc3)NC(=O)[C@H](CN)NC(=O)CSC[C@@H](C(=O)N[C@@H](CCN)C(=O)NCCCCCCCCCCC(=O)O)NC(=O)[C@@H](CCC(N)=O)NC(=O)[C@H](C(C)C)NC(=O)[C@H](CC3CCCCC3)NC(=O)[C@H](CCN)NC(=O)[C@@H](CC(C)C)NC(=O)[C@H](CCCN)NC(=O)[C@H](Cc3ccc(O)cc3)NC(=O)[C@H](Cc3ccc(-c4ccccc4)cc3)NC(=O)[C@H](C(C)C)NC2=O)c1", "note": "[Compound 2721] ({CH2CO}-[Dap]Y(Carboxymethyl)D[Phe(3-Me)]V[Bip]Y[Orn][dL][Dab][Cha]V[dQ]C[Dab][Aun]-OH; thioether N-14)", "values": [{"measurement": "IC50", "result": 22.4, "unit": "nM"}]}]}
